# Measurements reported in paper PMC3348578 (2009).
# Columns and labels:
# [1] = test system: DPP4-like protease; test: honeybee venom gland extracts; details: cited from earlier work
# [2] = test system: FAP (purified recombinant FAP; His-tagged FAP lacking the transmembrane domain); test: purified FAP in FAP assay buffer containing 100 mmol/L Tris, 100 mmol/L NaCl; details: 37°C, up to 8 h
substance,measurement,setting,value
APEPEPAPEPEAEADAEADPEAGIGAVLKVLTTGLPALISWIKRKRQQ-NH2,fragment found,[1],11 dipeptide fragments
NH2-GIGAVLKVLTTGLPALISWIKRKRQQ-NH2,not cleaved,[2],not cleaved by FAP
